ChEMBL document CHEMBL5150053, “Carboxymethyl tethered poly(disubstituted)triazoles built on nucleoside skeletons: A unique class of ribonuclease A inhibitors designed using chemical logic” (Bioorg Med Chem, 2022)
The source made the active and inactive calls. The calls are words filed in the database; no cut-off is given here.

What was measured:
Bos taurus [1] = species on record: Bos taurus; assay: Inhibition of bovine pancreatic RNase A using tRNA as substrate assessed as substrate degradation preincubated with compound for 3 hrs followed by substrate addition and measured after 30 mins by ethidium bromide staining based agarose gel electrophoresis analysis; conditions: time 3.5 hrs
[2] = Competitive inhibition of bovine pancreatic RNase A using 2',3'-cCMP as substrate assessed as inhibition constant by spectrophotometric analysis; set-up: species or system Bos taurus
[3] = Competitive reversible inhibition of bovine pancreatic RNase A using 2',3'-cCMP as substrate assessed as inhibition constant by spectrophotometric analysis; set-up: species or system Bos taurus
[4] = Linear mixed type inhibition of bovine pancreatic RNase A using 2',3'-cCMP as substrate assessed as inhibition constant by spectrophotometric analysis; set-up: species or system Bos taurus
[5] = Uncompetitive inhibition of bovine pancreatic RNase A using 2',3'-cCMP as substrate assessed as inhibition constant by spectrophotometric analysis; set-up: species or system Bos taurus
Bos taurus [6] = species on record: Bos taurus; assay: Uncompetitive inhibition of bovine pancreatic RNase A using 2',3'-cCMP as substrate assessed as Michaelis-Menten constant (Km) by Lineweaver-burk plot analysis (reference value: 9.35 x 10^-4 M)
[7] = Hyperbolic partial competitive inhibition of bovine pancreatic RNase A using 2',3'-cCMP as substrate assessed as inhibition constant by spectrophotometric analysis; set-up: species or system Bos taurus

| SMILES | inhibition (Bos taurus [1]) | Ki [2] [µM] | Ki [3] [µM] | further results |
| --- | --- | --- | --- | --- |
| O=C(O)Cn1cc(COC[C@H]2O[C@@H](n3ccc(=O)n(Cc4cn(CC(=O)O)nn4)c3=O)[C@H](O)[C@@H]2O)nn1 | Active | 198 | – | – |
| O=S(=O)(O)CCn1cc(CO[C@@H]2O[C@H](Cn3cc(CS(=O)(=O)O)nn3)[C@@H](O)[C@H]2O)nn1 | – | – | 29 | – |
| O=C(O)Cn1cc(COC[C@H]2O[C@@H](n3ccc(=O)n(Cc4cn(CC(=O)O)nn4)c3=O)[C@H](OCc3cn(CC(=O)O)nn3)[C@@H]2OCc2cn(CC(=O)O)nn2)nn1 | Active | 74.1 | – | – |
| Nc1ccn([C@@H]2O[C@H](CO)[C@@H](S(=O)(=O)CC(=O)O)[C@H]2O)c(=O)n1 | – | – | 1.75 | – |
| Cc1cn([C@H]2C[C@H](OCc3cn(CC(=O)O)nn3)[C@@H](COCc3cn(CC(=O)O)nn3)O2)c(=O)[nH]c1=O | Active | – | – | Ki [4]: 211 µM |
| Cc1cn([C@H]2C[C@H](O)[C@@H](CO)O2)c(=O)n(Cc2cn(CC(=O)O)nn2)c1=O | Active | – | – | Ki [5]: 232 µM; Km (Bos taurus [6]): 585 µM |
| Cc1cn([C@H]2C[C@H](OCc3cn(CC(=O)O)nn3)[C@@H](COCc3cn(CC(=O)O)nn3)O2)c(=O)n(Cc2cn(CC(=O)O)nn2)c1=O | Active | – | – | Ki [7]: 2.3 µM |
| O=C(O)CS(=O)(=O)[C@H]1[C@@H](O)[C@H](n2ccc(=O)[nH]c2=O)O[C@@H]1CO | – | – | 2 | – |
| O=c1ccn([C@@H]2O[C@H](CO)[C@@H](S(=O)(=O)O)[C@@H]2O)c(=O)[nH]1 | – | – | 0.96 | – |
| Cc1cn([C@H]2C[C@H](S(=O)(=O)O)[C@@H](CO)O2)c(=O)[nH]c1=O | – | – | 2.08 | – |
| O=C(O)Cn1cc(Cn2c(=O)ccn([C@@H]3O[C@H](CO)[C@@H](O)[C@H]3O)c2=O)nn1 | Active | 55.4 | – | – |
| Cc1cn([C@H]2C[C@H](OCc3cn(CC(=O)O)nn3)[C@@H](CO)O2)c(=O)n(Cc2cn(CC(=O)O)nn2)c1=O | Active | 352 | – | – |
| O=C(O)c1nnn(C[C@H]2O[C@@H](OCc3cn(CCS(=O)(=O)O)nn3)[C@H](O)[C@@H]2O)c1C(=O)O | – | – | 46 | – |
